Results: ChEMBL document CHEMBL1201862, “PubChem BioAssay data set” (2004)
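A five-concentration, 48-hour dose response in 96-well plates underlies each endpoint, interpolated linearly between surrounding concentrations. Abbreviation: GI50, concentration required for 50% inhibition of growth.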 The source made the active and inactive calls. Cut-off read from the data, not from the text of the source: active = GI50 up to about 1.1 µM and inactive = higher.

How the values were obtained:
Experiment in all cases: NCI tumour cell line growth inhibition, 48 h
Malme-3M = test system: Malme-3M
OVCAR-3 = test system: OVCAR-3
HOP-62 = test system: HOP-62
KM12 = test system: KM12
MOLT-4 = test system: MOLT-4
SK-MEL-2 = test system: SK-MEL-2
M19-MEL = test system: M19-MEL
OVCAR-8 = test system: OVCAR-8
OVCAR-4 = test system: OVCAR-4
NCI-H522 = test system: NCI-H522
SNB-75 = test system: SNB-75
SK-MEL-5 = test system: SK-MEL-5
HOP-92 = test system: HOP-92
A498 = test system: A498
HT-29 = test system: HT-29
UACC-62 = test system: UACC-62
LOX IMVI = test system: LOX IMVI
KM-20L2 = test system: KM-20L2
NCI-H23 = test system: NCI-H23

Row | Structure (SMILES) | GI50 (Malme-3M) | GI50 (OVCAR-3) | GI50 (HOP-62) | GI50 (KM12) | GI50 (MOLT-4) | GI50 (SK-MEL-2) | GI50 (M19-MEL) | GI50 (OVCAR-8) | GI50 (OVCAR-4) | GI50 (NCI-H522) | GI50 (SNB-75) | GI50 (SK-MEL-5) | GI50 (HOP-92) | GI50 (A498) | GI50 (HT-29) | GI50 (UACC-62) | GI50 (LOX IMVI) | GI50 (KM-20L2) | GI50 (NCI-H23)
1 | CC1=CC2=C(C)C3(CC3)[C@@](C)(O)C(=O)C2=C1 | 0.0933 µM (active) | 0.182 µM (active) | 0.146 µM (active) | 0.355 µM (active) | > 1 µM (active) | 0.191 µM (active) | 0.254 µM (active) | 0.211 µM (active) | 0.174 µM (active) | 0.145 µM (active) | 0.19 µM (active) | 0.122 µM (active) | 0.307 µM (active) | 0.241 µM (active) | 0.227 µM (active) | 0.21 µM (active) | 0.174 µM (active) | 0.213 µM (active) | 0.0822 µM (active)
2 | O=C1OC2C(O)COC2(O)C1(O)Cc1c[nH]c2ccccc12.O=C1OC2C(O)COC2(OCc2c[nH]c3ccccc23)C1O (stereo not given) | > 100 µM (inactive) | > 100 µM (inactive) | > 100 µM (inactive) | > 100 µM (inactive) | > 100 µM (inactive) | > 100 µM (inactive) | > 100 µM (inactive) | > 100 µM (inactive) | > 100 µM (inactive) | > 100 µM (inactive) | > 100 µM (inactive) | > 100 µM (inactive) | > 100 µM (inactive) | > 100 µM (inactive) | > 100 µM (inactive) | > 100 µM (inactive) | > 100 µM (inactive) | > 100 µM (inactive) | > 100 µM (inactive)
3 | O=C(O)COc1ccc(C(=O)/C(SS/C(C(=O)c2ccc(OCC(=O)O)c(Cl)c2Cl)=C2\C=C(c3ccccc3Cl)SS2)=C2/C=C(c3ccccc3Cl)SS2)c(Cl)c1Cl | 53.8 µM (inactive) | 17.9 µM (inactive) | 72.1 µM (inactive) | 31.2 µM (inactive) | 21.9 µM (inactive) | 23.2 µM (inactive) | 28.5 µM (inactive) | 23.7 µM (inactive) | 19.8 µM (inactive) | 3.27 µM (inactive) | 35.1 µM (inactive) | 18.3 µM (inactive) | 7.89 µM (inactive) | 34.7 µM (inactive) | 21.7 µM (inactive) | 23.1 µM (inactive) | 9.89 µM (inactive) | 49.8 µM (inactive) | 22 µM (inactive)
4 | CCc1cccc(C)c1NC(=O)CC1C(=O)Nc2ccccc2S1(=O)=O (stereo not given) | 14.4 µM (inactive) | 15.2 µM (inactive) | – | – | 14.1 µM (inactive) | 21.1 µM (inactive) | 15.5 µM (inactive) | 19.8 µM (inactive) | 14.9 µM (inactive) | 15.8 µM (inactive) | 16 µM (inactive) | 13.7 µM (inactive) | 12 µM (inactive) | 21 µM (inactive) | 19.7 µM (inactive) | 15.8 µM (inactive) | 13.2 µM (inactive) | 18.5 µM (inactive) | 15.7 µM (inactive)
5 | COC(=O)CCC(NC(=S)N/N=C(\C)c1cccs1)C(=O)OC (stereo not given) | > 100 µM (inactive) | > 100 µM (inactive) | > 100 µM (inactive) | > 100 µM (inactive) | – | > 100 µM (inactive) | > 100 µM (inactive) | > 100 µM (inactive) | > 100 µM (inactive) | > 100 µM (inactive) | > 100 µM (inactive) | > 100 µM (inactive) | > 100 µM (inactive) | > 100 µM (inactive) | > 100 µM (inactive) | > 100 µM (inactive) | > 100 µM (inactive) | > 100 µM (inactive) | > 100 µM (inactive)
6 | Cc1nc2c(s/c(=N\N)n2-c2ccccc2)c(=O)[nH]1 | > 100 µM (inactive) | > 100 µM (inactive) | > 100 µM (inactive) | > 100 µM (inactive) | > 100 µM (inactive) | > 100 µM (inactive) | > 100 µM (inactive) | > 100 µM (inactive) | > 100 µM (inactive) | > 100 µM (inactive) | > 100 µM (inactive) | > 100 µM (inactive) | > 100 µM (inactive) | > 100 µM (inactive) | > 100 µM (inactive) | > 100 µM (inactive) | > 100 µM (inactive) | > 100 µM (inactive) | > 100 µM (inactive)
7 | CCCN1CN(C(C(=O)N[C@@H]2C(=O)N3C(C(=O)O)=C(C)CSC23)c2ccccc2)CSC1=S (stereo not given in full) | > 100 µM (inactive) | 68.1 µM (inactive) | > 100 µM (inactive) | > 100 µM (inactive) | > 100 µM (inactive) | > 100 µM (inactive) | > 100 µM (inactive) | > 100 µM (inactive) | > 100 µM (inactive) | 23 µM (inactive) | > 100 µM (inactive) | > 100 µM (inactive) | > 100 µM (inactive) | > 100 µM (inactive) | > 100 µM (inactive) | > 100 µM (inactive) | 47.4 µM (inactive) | > 100 µM (inactive) | > 100 µM (inactive)
8 | O=C(NO)C(=O)Nc1ccc(Cl)cc1[N+](=O)[O-] | > 100 µM (inactive) | > 100 µM (inactive) | > 100 µM (inactive) | > 100 µM (inactive) | > 100 µM (inactive) | > 100 µM (inactive) | > 100 µM (inactive) | > 100 µM (inactive) | > 100 µM (inactive) | > 100 µM (inactive) | > 100 µM (inactive) | > 100 µM (inactive) | 83.9 µM (inactive) | > 100 µM (inactive) | > 100 µM (inactive) | > 100 µM (inactive) | 51.9 µM (inactive) | > 100 µM (inactive) | > 100 µM (inactive)
9 | CCOc1ccc(NC(=O)C(=O)CC(=O)c2c[n+]([O-])c3cc(C)c(C)cc3[n+]2[O-])cc1 | > 100 µM (inactive) | > 100 µM (inactive) | > 100 µM (inactive) | > 100 µM (inactive) | > 100 µM (inactive) | > 100 µM (inactive) | > 100 µM (inactive) | > 100 µM (inactive) | > 100 µM (inactive) | > 100 µM (inactive) | > 100 µM (inactive) | > 100 µM (inactive) | > 100 µM (inactive) | > 100 µM (inactive) | > 100 µM (inactive) | > 100 µM (inactive) | > 100 µM (inactive) | > 100 µM (inactive) | > 100 µM (inactive)
10 | Nc1ccccc1[S+]([O-])c1ccccc1 (stereo not given) | > 100 µM (inactive) | > 100 µM (inactive) | > 100 µM (inactive) | > 100 µM (inactive) | > 100 µM (inactive) | > 100 µM (inactive) | > 100 µM (inactive) | > 100 µM (inactive) | > 100 µM (inactive) | > 100 µM (inactive) | > 100 µM (inactive) | > 100 µM (inactive) | 39.2 µM (inactive) | > 100 µM (inactive) | – | > 100 µM (inactive) | > 100 µM (inactive) | > 100 µM (inactive) | > 100 µM (inactive)
11 | C=C[C@]1(C)CC(O)C2C(=C)C(=O)OC2[C@H]1C(=C)C=O (stereo not given in full) | 1.86 µM (inactive) | 2.67 µM (inactive) | 15.5 µM (inactive) | 2.17 µM (inactive) | 2 µM (inactive) | 3.5 µM (inactive) | 2.52 µM (inactive) | 2.16 µM (inactive) | 7.93 µM (inactive) | 0.966 µM (active) | 18.6 µM (inactive) | 2.33 µM (inactive) | 2.61 µM (inactive) | 4.42 µM (inactive) | 2.33 µM (inactive) | 1.79 µM (inactive) | 1.01 µM (active) | 5.47 µM (inactive) | 2.68 µM (inactive)
